One experiment concerns Ramos. Description: AlamarBlue viability assay. Format: cell-based, human. The following applies: cytotoxicity, 24 h, read-out: IC50 (Ramos).
The test system of experiment [1] is retinoblastoma (RB) protein phosphorylation. Description: immunopurification of RB from Ramos cells. In kind it is cell-based, human. The procedure: For immunopurification (IP) the Dynabeads^TM Protein G Immunoprecipitation kit from Invitrogen (#10007D) was used. For IP, 2 × 10^6 cells were seeded in a 24-well plate and treated with the appropriate compound. After incubation, cells were lysed with NP-40 containing lysis buffer (Hepes-NaOH 50 mM pH 7.5, NaCl 150 mM, NP-40 1% v/v, MgCl2 2.5 mM, 1x Protease inhibitor (cOmplete^TM, EDTA-free Protease Inhibitor Cocktail), 1x Phosphatase Inhibitor (PhosSTOP^TM)) for 30 min. A protein content of 50 µg per IP was used, the protein concentration was measured by Bradford assay (Bio-Rad #5000006) with the photometer. Protein G is conjugated to the magnetic Dynabeads^TM. In the first step, the Dynabeads^TM were incubated for 10 min with the specific RB antibody (Abcam #ab181616; rabbit), which was used in a dilution of 1:80. The antibody bound to the conjugated protein G and a bead-antibody complex was formed. By placing the tube on a magnet, the beads were easily separated from the solution and the supernatant could be removed. The bead-antibody complex was washed once with Ab binding and washing buffer. In the second step, the cell lysate was incubated for 10 min with the bead-antibody complex to allow the RB protein from the lysate to bind to the antibody. The bead complex was washed several times with washing buffer by placing the tube on the magnet and removing the supernatant. […]

In a further experiment the target is T1, DYRK4 (Homo sapiens, UniProt Q9NR20).
T1 construct: purchased Reaction Biology Europe GmbH (formerly ProQinase)
T1 sequence (Q9NR20 1-520): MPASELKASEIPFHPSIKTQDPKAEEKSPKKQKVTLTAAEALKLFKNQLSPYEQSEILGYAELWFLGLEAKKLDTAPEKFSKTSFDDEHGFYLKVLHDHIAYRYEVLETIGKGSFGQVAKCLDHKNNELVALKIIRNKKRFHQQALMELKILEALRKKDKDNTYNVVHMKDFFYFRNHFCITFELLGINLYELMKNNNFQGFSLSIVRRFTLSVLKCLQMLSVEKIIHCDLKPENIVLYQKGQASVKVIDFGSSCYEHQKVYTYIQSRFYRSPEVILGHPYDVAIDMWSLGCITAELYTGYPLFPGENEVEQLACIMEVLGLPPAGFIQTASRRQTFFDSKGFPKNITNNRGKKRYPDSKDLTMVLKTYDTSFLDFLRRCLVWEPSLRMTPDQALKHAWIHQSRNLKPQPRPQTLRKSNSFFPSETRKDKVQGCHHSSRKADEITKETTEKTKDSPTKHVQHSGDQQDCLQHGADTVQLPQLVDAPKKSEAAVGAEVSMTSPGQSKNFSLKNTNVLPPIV
Description: kinome screen (33PanQinase). In kind it is biochemical. The procedure:
The Kinome Screening was performed by Reaction Biology Europe GmbH (http://reactionbiology.com; Freiburg i. Br., Germany). […] A kinase inhibition profile of the three meriolins was determined by measuring residual activity at two concentrations each in single values in 335 wild-type protein kinase assays.
The residual activity was calculated as: Res.Activity%=100x(Signalofcompound−lowcontrol/highcontrol−lowcontrol)

pIC50: −log10 of the molar value. Read-outs that look alike come from different tables or passages of the source.

For the compound `COc1ccnc2[nH]cc(-c3cc(N)nc(N)c3)c12` [meriolin 16], the pIC50 with Ramos (as given in text) is 7.52 to 7.70; with Ramos (listed as Meriolin 16), 7.70; with Ramos, 7.52. For the same compound, the “phosphorylation of RB at p-Ser612 and p-Thr821 (immunopurified RB)” value is “less phosphorylated” in experiment [1] (1 µM, 4 h) and “completely abrogated” in experiment [1] (24 h). The residual kinase activity at DYRK4 (0.03 µM) is 39 % of control; at DYRK4 (0.3 µM) it was 7 % of control.
Turning to `c1ccc(CNc2cc(-c3c[nH]c4ncccc34)ccn2)cc1` [meriolin 36], the residual kinase activity on DYRK4 (0.3 µM) is 66 % of control; on DYRK4 (3 µM) it was 22 % of control.

Values taken from article PMC11167047 (Cell Death Discovery, 2024).
